In patent publication US7452997B2 (priority 2004, dated 2008):
Where two headings read alike, the source gives them in different places.

Assays:
[1] = target: T1, human CB1 receptor (Homo sapiens, UniProt P21554); experiment: biochemical; assay type: binding
T1 construct: expressed in transfected cells; host or cells: SK-N-MC cells, stably transfected with pcDNA3 CB-1 (human); semi-purified membrane pellet
Description: (§1) Binding Assay for CB1 or CB2 Agonists or Inverse Agonists
(§2) The human CB1 and CB2 receptors were stably expressed in SK-N-MC cells transfected with pcDNA3 CB-1 (human) or pcDNA3 CB-2 (human). The cells were grown in T-180 cell culture flasks under standard cell culture conditions at 37° C. in a 5% CO2 atmosphere. The cells were harvested by trysinization and homogenized in a homogenization buffer (10 mM Tris, 0.2 mM MgCl2, 5 mM KCl, with protease inhibitors aprotinin, leupeptin, pepstatin A and bacitracin) and centrifuged (2000 g). The supernatant was then centrifuged in 2M sucrose (31,300 g) to produce a semi-purified membrane pellet. The pellet was resuspended in homogenization and store at −80° C.
On the day of the assay, the pellet was thawed on ice and diluted in assay buffer (50 mM Tris-HCl, 5 mM MgCl2, 2.5 mM EDTA, 0.5 mg/mL fatty acid free bovine serum albumin, pH 7.5). […] The plate was covered and incubated for 90 minutes at 30° C. The contents were then aspirated onto a Packard […] GF/C filter bottom plate prewet with 0.5% polyethyleneimine. The wells of the polypropylene plate were rinsed and aspirated seven times with a 0.9% saline-0.5% TWEEN 20 solution. The […] plate was dried, a scintillation cocktail was added to each well and the counts representing binding were quantitated in a TOPCOUNT scintillation counter.
(§3) The IC50 binding values for compounds tested were calculated by linear regression and were obtained from studies in which varying compound concentrations were used.

[2] = target: human CB2 receptor (Homo sapiens, UniProt P34972); experiment: Binding assay, cannabinoid CB2 receptor ([3H]-CP-55,940 displacement); conditions: SK-N-MC cell membranes, radioligand CP-55,940 0.2 nM
Sequence of human CB2 receptor (P34972 whole entry): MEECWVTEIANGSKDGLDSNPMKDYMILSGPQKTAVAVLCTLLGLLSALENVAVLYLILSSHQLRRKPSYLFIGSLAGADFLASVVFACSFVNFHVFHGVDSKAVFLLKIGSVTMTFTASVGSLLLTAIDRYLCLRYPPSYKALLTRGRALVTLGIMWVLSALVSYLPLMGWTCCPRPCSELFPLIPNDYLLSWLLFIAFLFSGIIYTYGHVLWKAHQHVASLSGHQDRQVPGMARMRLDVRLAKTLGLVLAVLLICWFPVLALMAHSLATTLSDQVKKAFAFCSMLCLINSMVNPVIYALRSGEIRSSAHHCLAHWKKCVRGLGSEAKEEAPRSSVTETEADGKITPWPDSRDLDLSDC
Description: as §1, §2
On the day of the assay, the pellet was thawed on ice and diluted in assay buffer (50 mM Tris-HCl, 5 mM MgCl2, 2.5 mM EDTA, 0.5 mg/mL fatty acid free bovine serum albumin, pH 7.5). The diluted membrane was added with buffer, test compound or standard and the radioligand [H]^3+-CP-55,940_(0.2 nM) to the wells of a 96-well polypropylene plate. Non-specific binding was measured in wells containing 10 uM WIN 55,212. The plate was covered and incubated for 90 minutes at 30° C. The contents were then aspirated onto a Packard UNIFILTER GF/C filter bottom plate prewet with 0.5% polyethyleneimine. The wells of the polypropylene plate were rinsed and aspirated seven times with a 0.9% saline-0.5% TWEEN 20 solution. The UNIFILTER plate was dried, a scintillation cocktail was added to each well and the counts representing binding were quantitated in a TOPCOUNT scintillation counter.
as §3

[3] = Cannabinoid CB2 Receptor Binding IC50, human CB2 receptor
[4] = human CB2 receptor, read-out: Cannabinoid CB2 Receptor Binding IC50

T1 sequence (P21554 whole entry): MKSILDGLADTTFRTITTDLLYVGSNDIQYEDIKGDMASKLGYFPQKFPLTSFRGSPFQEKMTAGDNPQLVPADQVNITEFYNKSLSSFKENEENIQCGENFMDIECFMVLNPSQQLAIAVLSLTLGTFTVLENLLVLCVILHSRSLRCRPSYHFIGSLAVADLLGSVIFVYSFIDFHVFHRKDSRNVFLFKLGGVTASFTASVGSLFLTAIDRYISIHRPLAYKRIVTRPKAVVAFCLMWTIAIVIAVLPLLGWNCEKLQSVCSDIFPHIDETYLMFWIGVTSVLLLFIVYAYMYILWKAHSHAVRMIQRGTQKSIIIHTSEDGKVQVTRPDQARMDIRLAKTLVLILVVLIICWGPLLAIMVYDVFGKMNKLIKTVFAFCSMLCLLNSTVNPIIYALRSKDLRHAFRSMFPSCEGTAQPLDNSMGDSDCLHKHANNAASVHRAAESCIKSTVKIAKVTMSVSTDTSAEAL

Work on `CC12CCC(C1)C(C)(C)C2NC(=O)CCc1nn(C2CCCCC2)c2c1CCCC2` (centres unmarked) [Cpd 50, 3-(1-cyclohexyl-4,5,6,7-tetrahydro-1H-indazol-3-yl)-N-(1,3,3-trimethyl-bicyclo[2.2.1]hept-2-yl)-propionamide] yielded an IC50 [1] of 255 nM and an IC50 [2, 3] of 13 nM.

With `O=C(N[C@H]1CCCC[C@H]1CO)c1nn(C2CCCCC2)c2c1CCCC2Cl` (stereo partly drawn) [Cpd 60, 7-chloro-1-cyclohexyl-4,5,6,7-tetrahydro-1H-indazole-3-carboxylic acid [(1S,2R)-2-hydroxymethyl-cyclohexyl]-amide] the IC50 [1] was 5230 nM and the IC50 [2, 3] was 515 nM.

Compound `CC(C)(Cc1nn(C2CCCCC2)c2c1CCCC2)C(=O)NC1C2CC3CC(C2)CC1C3` (centres unmarked) [Cpd 66, N-adamantan-2-yl-3-(1-cyclohexyl-4,5,6,7-tetrahydro-1H-indazol-3-yl)-2,2-dimethyl-propionamide] has an IC50 [1] of 3590 nM and an IC50 [2, 3] of 1400 nM.

`CN(C)C(=O)NC1CCc2c(c(C(=O)NC3C4CC5CC(C4)CC3C5)nn2C2CCCCC2)C1` (centres unmarked) [Cpd 89, 1-cyclohexyl-5-(3,3-dimethyl-ureido)-4,5,6,7-tetrahydro-1H-indazole-3-carboxylic acid adamantan-2-ylamide] was tested, and the IC50 [1] was 3700 nM and the IC50 [2, 3] was 1.4 nM.

`CC12CCC(C1)C(C)(C)C2NC(=O)c1nn(C2CCCCC2)c2c1CC(N)CC2` (centres unmarked) [Cpd 92, 5-amino-1-cyclohexyl-4,5,6,7-tetrahydro-1H-indazole-3-carboxylic acid (1,3,3-trimethyl-bicyclo[2.2.1]hept-2-yl)-amide] showed an IC50 [1] of 1600 nM and an IC50 [2, 3] of 90 nM.

For `CC12CCC(C1)C(C)(C)C2NC(=O)c1nn(C2CCCCC2)c2c1CC(O)CC2` (centres unmarked) [Cpd 93, 1-cyclohexyl-5-hydroxy-4,5,6,7-tetrahydro-1H-indazole-3-carboxylic acid (1,3,3-trimethyl-bicyclo[2.2.1]hept-2-yl)-amide], the IC50 [1] was 1150 nM and the IC50 [2, 3] was 20 nM.

`CCOC(=O)C1CCc2c(c(C(=O)NC(C)C34CC5CC(CC(C5)C3)C4)nn2C2CCCCC2)C1` (centres unmarked) [Cpd 132] showed an IC50 [1] of 2900 nM and an IC50 [2, 3] of 25.5 nM.

`CC(NC(=O)c1nn(C2CCCCC2)c2c1CC(CO)CC2)C12CC3CC(CC(C3)C1)C2` (centres unmarked) [Cpd 143, 1-cyclohexyl-5-hydroxymethyl-4,5,6,7-tetrahydro-1H-indazole-3-carboxylic acid (1-adamantan-1-yl-ethyl)-amide] gave an IC50 [1] of 2400 nM and an IC50 [2, 3] of 1260 nM.

Compound `CCOC(=O)[C@H]1C2CCC(C2)[C@H]1NC(=O)c1nn(C2CCCCC2)c2c1CCCC2O` (stereo partly drawn) [Cpd 164, (2S,3R)-3-[(1-cyclohexyl-7-hydroxy-4,5,6,7-tetrahydro-1H-indazole-3-carbonyl)-amino]-bicyclo[2.2.1]heptane-2-carboxylic acid ethyl ester] has an IC50 [1] of 6010 nM and an IC50 [2, 3] of 490 nM.

`O=C(Nc1nn(C2CCCCC2)c2c1CCCC2)c1ccc2ccccc2c1` [Cpd 178, naphthalene-2-carboxylic acid (1-cyclohexyl-4,5,6,7-tetrahydro-1H-indazol-3-yl)-amide] showed an IC50 [2, 3] of 2900 nM.

For `O=C(Nc1nn(C2CCCCC2)c2c1CCCC2)NC12CC3CC(CC(C3)C1)C2` [Cpd 182, 1-adamantan-1-yl-3-(1-cyclohexyl-4,5,6,7-tetrahydro-1H-indazol-3-yl)-urea], the IC50 [2, 3] was 28 nM.

Compound `CC12CCC(C1)C(C)(C)C2NC(=O)c1nn(Cc2ccccc2)c2c1CCCC2` (centres unmarked) [Cpd 194, 1-benzyl-4,5,6,7-tetrahydro-1H-indazole-3-carboxylic acid (1,3,3-trimethyl-bicyclo[2.2.1]hept-2-yl)-amide] has an IC50 [1] of 0.1 nM and an IC50 [2, 3] of 0.2 nM.

In the case of `O=C(NC1C2CC3CC(C2)CC1C3)c1nn(C2CCCCC2)c2c1CC(C(=O)O)CC2` (centres unmarked) [Cpd 223, 3-(adamantan-2-ylcarbamoyl)-1-cyclohexyl-4,5,6,7-tetrahydro-1H-indazole-5-carboxylic acid], the IC50 [1] is reported as 170000 nM and the IC50 [2, 3] is reported as 2900 nM.

Compound `CC(C)(C)CC(C)(C)NC(=O)C1CCc2c(c(C(=O)NC3C4CC5CC(C4)CC3C5)nn2C2CCCCC2)C1` (centres unmarked) [Cpd 228, 1-cyclohexyl-4,5,6,7-tetrahydro-1H-indazole-3,5-dicarboxylic acid 3-adamantan-2-ylamide 5-[(1,1,3,3-tetramethyl-butyl)-amide]] has an IC50 [2, 3] of 250 nM.

In the case of `COc1ccc(C(O)CNC(=O)c2nn(C3CCCCC3)c3c2CCCC3)cc1` (centres unmarked) [Cpd 241, 1-cyclohexyl-4,5,6,7-tetrahydro-1H-indazole-3-carboxylic acid [2-hydroxy-2-(4-methoxy-phenyl)-ethyl]-amide], the IC50 [1] is reported as 3400 nM and the IC50 [2, 3] is reported as 500 nM.

Compound `O=C(NCC1CCCCC1)c1nn(C2CCCCC2)c2c1CCCC2` [Cpd 304, 1-cyclohexyl-4,5,6,7-tetrahydro-1H-indazole-3-carboxylic acid cyclohexylmethylamide] has an IC50 [1] of 160 nM and an IC50 [2, 3] of 20 nM.

With `C[C@@H](NC(=O)C=Cc1nn(Cc2ccccc2)c2c1CCCC2)c1ccccc1` [Cpd 306, 3-(1-benzyl-4,5,6,7-tetrahydro-1H-indazol-3-yl)-N-[(1R)-1-phenyl-ethyl]-acrylamide] the IC50 [2, 3] was 1800 nM.

`COC(=O)C(Cc1ccc(OCc2ccccc2)cc1)NC(=O)c1c2c(nn1-c1ccc(OC)cc1)CCCC2` (centres unmarked) [compound 4] gave an IC50 [2, 4] of 3690 nM.

`COc1ccc(-n2nc3c(c2C(=O)NCCc2ccc(N)cc2)CCCC3)cc1` [compound 8] gave an IC50 [2, 4] of 21200 nM.

Compound `CN1C2CCC1CC(NC(=O)c1nn(C3CCCCC3)c3c1CCCC3)C2` (centres unmarked) [compound 46] has an IC50 [2, 3] of 9200 nM.

Work on `CCOC(=O)c1c(NC(=O)c2nn(C3CCCCC3)c3c2CCCC3)sc2c1CCCCC2` [compound 55] yielded an IC50 [2, 3] of 7900 nM.

With `CCOC(=O)c1c(NC(=O)c2nn(C3CCCCC3)c3c2CCCC3)sc2c1CCC2` [compound 56] the IC50 [2, 3] was 20000 nM.

`CC(C)(C)C1CCc2c(c(C(=O)NC3C4(C)CCC(C4)C3(C)C)nn2-c2ccccc2)C1` (centres unmarked) [compound 111] gave an IC50 [2, 3] of 170 nM.

For `CC(C)(C)C1CCc2c(c(C(=O)NC34CC5CC(CC(C5)C3)C4)nn2-c2ccccc2)C1` (centres unmarked) [compound 113], the IC50 [2, 3] was 770 nM.

`C[C@@H](NC(=O)c1nn(-c2ccccc2)c2c1CC(C(C)(C)C)CC2)C1CCCCC1` (some centres unmarked) [compound 114] showed an IC50 [2, 3] of 530 nM.

In the case of `CCOC(=O)C1CCc2c(c(C(=O)NC3C4CC5CC(C4)CC3C5)nn2-c2ccccc2)C1` (centres unmarked) [compound 115], the IC50 [2, 3] is reported as 180 nM.

`CCOC(=O)C1CCc2c(c(C(=O)NCC34CC5CC(CC(C5)C3)C4)nn2-c2ccccc2)C1` (centres unmarked) [compound 117] was tested, and the IC50 [2, 3] was 370 nM.

Work on `CCOC(=O)C1CCc2c(c(C(=O)NC34CC5CC(CC(C5)C3)C4)nn2-c2ccccc2)C1` (centres unmarked) [compound 118] yielded an IC50 [2, 3] of 400 nM.

In the case of `CCN(C(=O)c1c2c(nn1-c1ccc(OC)cc1)CCCC2)c1ccccc1OC` [compound 121], the IC50 [2, 4] is reported as 6270 nM.

`O=C(NC1C2CCC(C2)C1C(=O)O)c1nn(C2CCCCC2)c2c1CC(C(=O)O)CC2` (centres unmarked) [compound 138] showed an IC50 [2, 4] of 11800 nM.

With `CC12CCC(C1)C(C)(C)C2NC(=O)c1nn(-c2ccccn2)c2c1CCCC2` (centres unmarked) [compound 160] the IC50 [2, 3] was 3500 nM.

`CC(NC(=O)c1nn(Cc2ccccc2)c2c1CC(C(=O)O)CC2)C12CC3CC(CC(C3)C1)C2` (centres unmarked) [compound 166] showed an IC50 [2, 3] of 1700 nM.

In the case of `CC12CCC(C1)C(C)(C)C2NC(=O)c1nn(C2CCCCC2)c2c1CC(C(N)=O)CC2` (centres unmarked) [compound 170], the IC50 [2, 3] is reported as 300 nM.

`O=C(Nc1nn(C2CCCCC2)c2c1CCCC2)c1ccccc1` [compound 186] gave an IC50 [2, 4] of 2290 nM.

`O=C(CNC(=O)c1nn(C2CCCCC2)c2c1CCCC2)c1ccccc1` [compound 188] gave an IC50 [2, 3] of 5100 nM.

`CCOC(=O)[C@H]1C2CCC(C2)[C@H]1NC(=O)c1nn(-c2ccc(F)cc2)c2c1CCCC2CC` (some centres unmarked) [compound 191] was tested, and the IC50 [2, 3] was 190 nM.

Compound `O=C(NC1CN2CCC1CC2)c1nn(C2CCCCC2)c2c1CCCC2` (centres unmarked) [compound 225] has an IC50 [2, 4] of 650 nM.

For `CCOC(=O)C1CCc2c(c(C(=O)NN3CCCCC3)nn2C2CCCCC2)C1` (centres unmarked) [compound 229], the IC50 [2, 3] was 1300 nM.

`O=C(NC1C2CC3CC(C2)CC1C3)c1nn(Cc2ccccc2)c2c1CC(C(=O)O)CC2` (centres unmarked) [compound 239] gave an IC50 [2, 3] of 300 nM.

For `O=C(NCC(O)c1ccc(Br)cc1)c1nn(C2CCCCC2)c2c1CCCC2` (centres unmarked) [compound 240], the IC50 [2, 3] was 1700 nM.

Compound `C[C@@H](NC(=O)c1nn(C2CCCCC2)c2c1CC(NC(=O)OC(C)(C)C)CC2)C1CCCCC1` (some centres unmarked) [compound 286] has an IC50 [2, 3] of 2700 nM.

In the case of `O=C(NNC1CCCCCCC1)c1nn(-c2ccc(F)cc2)c2c1CCCC2` [compound 299], the IC50 [2, 3] is reported as 5520 nM.

`O=C(Nc1nn(Cc2ccccc2)c2c1CCCC2)NC12CC3CC(CC(C3)C1)C2` [compound 337] was tested, and the IC50 [2, 3] was 80 nM.
